# Source: US12398118B2, “Rho-associated protein kinase inhibitor, pharmaceutical composition comprising same, and use thereof” (BEIJING TIDE PHARMACEUTICAL CO., LTD., priority 2018, dated 2025)
# Assays:
# [1] = target: ROCK1 (Homo sapiens (Human), UniProt Q13464); experiment: ROCK1 kinase IC50, biological test method similar to ROCK2 assay; assay type: biochemical
# Procedure: (§1) The kinase IC50 was determined by a commercialized CISBIO kinase detection kit, HTRF KinEASE-STK S2 kit (62ST2PEC). ROCK2 (01-119) employed in the reaction was purchased from Carna Biosciences.
# (§2) Before the assay, the following working solutions as needed were formulated with corresponding reagents according to the instruction of the kinase detection kit: 1×kinase buffer, 5×STK-S2 substrate working solution (1.5 μM) and 5×ATP working solution (1.5 μM), 5×ROCK2 kinase working solution, 4×Streptavidin-XL665 working solution, and 4×STK-Ab-Cryptate 2 detection solution. Then the assay was performed according to the following procedure.
# (§3) A solution of a compound at a concentration of 10000 nM was prepared with the 1×kinase buffer containing 2.5% DMSO. Gradient dilution of the solution of the compound was performed with the kinase buffer containing DMSO, so as to obtain solutions of a test compound at 9 different concentrations. In addition to wells of test compounds, a positive well (containing all the reagents except the compound) and a negative well (containing all the reagents except the test compound and kinase) were set. Except for the control wells (positive and negative wells), a solution of a test compound (4 μL) was added to each of the reaction wells, and a solution of 2.5% DMSO was added to the control wells. Then the substrate (2 μM, i.e., 2 μL 5×STK-S2 substrate working solution) was added to each of the reaction wells. The 5×ROCK2 kinase working solution (2 μL, containing 1.4 ng ROCK2 kinase) was added to each of the reaction wells except for the negative well, the volume of which was made up with the 1×kinase buffer (2 μL). The 5×ATP working solution (2 μL) was added to each of the reaction wells, and the mixtures were incubated at room temperature for 2 hours. After the kinase reaction was complete, the 4×Streptavidin-XL665 working solution was added to each of the reaction wells, the solutions were mixed, followed by immediate addition of the 4×STK-Ab-Cryptate 2 detection solution (5 μL), and the mixtures were incubated at room temperature for 1 hour. The fluorescence signal was read on ENVISION (Perkinelmer) (excitation wavelength: 320 inn, and emission wavelength: 665 nm and 615 nm). The inhibitory rate in each well was calculated based on the fluorescence intensity value: ER (Emission Ratio)_(fluorescence intensity at 665 nm/fluorescence intensity at 615 nm); inhibitory rate=(ERpositive−ERtest compound)/(ERpositive−ERnegative)*100%. Curves were plotted and fitted to obtain the median inhibitory concentration (IC50) of each teat compound with the PRISM 5.0 software. According to a biological test method similar to the above, the IC50 values of the compounds on ROCK1 were also tested.
# [2] = target: ROCK2 (Homo sapiens, UniProt O75116); experiment: ROCK2 kinase IC50, HTRF KinEASE-STK S2 kit; assay type: biochemical; settings: 2 hours at room temperature
# Sequence of ROCK2 (O75116 whole entry, looked up): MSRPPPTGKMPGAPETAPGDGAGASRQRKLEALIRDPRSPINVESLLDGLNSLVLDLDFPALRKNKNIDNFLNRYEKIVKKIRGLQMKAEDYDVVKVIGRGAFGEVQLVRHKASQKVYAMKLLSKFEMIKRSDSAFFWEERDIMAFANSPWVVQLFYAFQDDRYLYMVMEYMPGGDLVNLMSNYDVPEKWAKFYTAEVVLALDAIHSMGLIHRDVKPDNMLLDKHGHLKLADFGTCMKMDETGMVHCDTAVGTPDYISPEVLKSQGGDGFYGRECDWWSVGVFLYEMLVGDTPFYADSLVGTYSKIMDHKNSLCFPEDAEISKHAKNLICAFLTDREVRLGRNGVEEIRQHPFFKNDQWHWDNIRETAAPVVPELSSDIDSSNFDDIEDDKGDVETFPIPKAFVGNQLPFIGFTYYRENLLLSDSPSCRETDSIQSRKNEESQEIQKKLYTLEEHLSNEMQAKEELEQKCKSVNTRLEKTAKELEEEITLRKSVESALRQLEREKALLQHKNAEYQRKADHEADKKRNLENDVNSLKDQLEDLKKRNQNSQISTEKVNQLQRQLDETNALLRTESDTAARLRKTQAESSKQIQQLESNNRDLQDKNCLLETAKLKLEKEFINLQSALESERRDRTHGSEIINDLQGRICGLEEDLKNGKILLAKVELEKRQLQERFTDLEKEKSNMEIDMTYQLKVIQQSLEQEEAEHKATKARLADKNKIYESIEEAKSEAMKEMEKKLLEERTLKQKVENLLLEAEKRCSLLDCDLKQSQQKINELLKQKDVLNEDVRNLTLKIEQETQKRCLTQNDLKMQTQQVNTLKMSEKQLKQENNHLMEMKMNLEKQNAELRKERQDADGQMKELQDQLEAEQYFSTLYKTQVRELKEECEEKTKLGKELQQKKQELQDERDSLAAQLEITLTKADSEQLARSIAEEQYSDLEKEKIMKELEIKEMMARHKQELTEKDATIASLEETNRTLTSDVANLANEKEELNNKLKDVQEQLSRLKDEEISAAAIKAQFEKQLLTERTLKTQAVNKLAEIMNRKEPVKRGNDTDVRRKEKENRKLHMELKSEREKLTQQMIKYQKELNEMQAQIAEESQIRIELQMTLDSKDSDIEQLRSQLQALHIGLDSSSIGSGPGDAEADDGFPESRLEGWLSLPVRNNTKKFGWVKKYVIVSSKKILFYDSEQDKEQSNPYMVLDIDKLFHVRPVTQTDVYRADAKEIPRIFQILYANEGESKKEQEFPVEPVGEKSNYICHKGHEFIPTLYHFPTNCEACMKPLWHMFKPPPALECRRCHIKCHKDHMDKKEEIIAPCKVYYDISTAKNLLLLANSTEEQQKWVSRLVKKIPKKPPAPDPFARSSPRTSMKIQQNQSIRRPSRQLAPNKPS
# Procedure: as §1, §2, §3
# Sequence of ROCK1 (Q13464 whole entry, species assumed): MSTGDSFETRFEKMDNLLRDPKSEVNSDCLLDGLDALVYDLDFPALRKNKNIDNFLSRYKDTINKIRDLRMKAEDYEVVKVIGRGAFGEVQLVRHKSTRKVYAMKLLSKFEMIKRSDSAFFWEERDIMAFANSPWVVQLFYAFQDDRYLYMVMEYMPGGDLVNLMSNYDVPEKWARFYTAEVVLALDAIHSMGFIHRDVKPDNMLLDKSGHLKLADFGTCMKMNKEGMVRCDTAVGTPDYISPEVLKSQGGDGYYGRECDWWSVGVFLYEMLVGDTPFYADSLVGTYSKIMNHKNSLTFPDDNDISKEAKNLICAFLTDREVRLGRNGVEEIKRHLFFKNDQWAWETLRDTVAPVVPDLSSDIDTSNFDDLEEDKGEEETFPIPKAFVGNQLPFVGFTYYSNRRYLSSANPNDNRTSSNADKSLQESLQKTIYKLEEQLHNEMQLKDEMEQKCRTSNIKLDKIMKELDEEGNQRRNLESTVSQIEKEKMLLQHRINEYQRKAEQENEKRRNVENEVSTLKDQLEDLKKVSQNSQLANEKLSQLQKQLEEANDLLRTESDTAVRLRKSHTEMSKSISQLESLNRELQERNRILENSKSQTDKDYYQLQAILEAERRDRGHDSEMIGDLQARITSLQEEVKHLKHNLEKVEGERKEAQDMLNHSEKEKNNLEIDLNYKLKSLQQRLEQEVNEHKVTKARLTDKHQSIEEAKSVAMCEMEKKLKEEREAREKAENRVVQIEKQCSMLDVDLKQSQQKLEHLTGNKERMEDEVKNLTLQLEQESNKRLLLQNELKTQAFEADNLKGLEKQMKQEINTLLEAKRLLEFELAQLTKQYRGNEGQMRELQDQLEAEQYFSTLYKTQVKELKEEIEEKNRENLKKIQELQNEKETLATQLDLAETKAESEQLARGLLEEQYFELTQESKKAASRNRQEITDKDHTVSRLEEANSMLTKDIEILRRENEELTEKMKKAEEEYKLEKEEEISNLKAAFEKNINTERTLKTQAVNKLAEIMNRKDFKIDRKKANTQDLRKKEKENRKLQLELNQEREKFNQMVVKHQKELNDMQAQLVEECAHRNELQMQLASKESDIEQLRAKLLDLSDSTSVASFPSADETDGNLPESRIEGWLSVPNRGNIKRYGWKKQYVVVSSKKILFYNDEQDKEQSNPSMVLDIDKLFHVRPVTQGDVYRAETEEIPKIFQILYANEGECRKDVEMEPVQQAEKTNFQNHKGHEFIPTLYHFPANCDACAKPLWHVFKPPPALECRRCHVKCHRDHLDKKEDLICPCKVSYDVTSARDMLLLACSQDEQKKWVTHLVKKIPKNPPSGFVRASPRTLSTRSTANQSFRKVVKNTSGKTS
Structure (SMILES),IC50 [1] [nM],IC50 [2] [nM]
CC(C)(C)OC(=O)N1CCc2cc(-c3ncc(F)c(Nc4ccc5c(=O)[nH]ccc5c4)n3)ccc21 [C17],> 10000,421
"COCn1c(C(=O)N2CC(F)(F)C2)cc2ccc(-c3ncnc(Nc4ccc5c(=O)[nH]ccc5c4)n3)cc21 [C22, 6-((4(2-(3,3-difluoro-azetidine-1-carbonyl)-1-(methoxy-methyl)-1H-indol-6-yl)-1,3,5-triazin-2-yl)amino) isoquinolin-1(2H)-one]",> 10000,130
"COCn1c(C(=O)N2CC(F)(F)C2)cc2ccc(-c3ncc(F)c(Nc4ccc5c(=O)[nH]ccc5c4)n3)cc21 [C20, 6-((2-(2-(3,3-difluoro-azetidine-1-carbonyl)-1-(methoxy-methyl)-1H-indol-6-yl)-5-fluoro-pyrimidin-4-yl)amino) isoquinolin-1(2H)-one]",> 10000,238
"O=C(c1ccc2c(c1)CN(c1nccc(Nc3ccc4c(=O)[nH]ccc4c3)n1)C2)N1CC(F)(F)C1 [C1, 6-((2-(5-(3,3-difluoroazetidine-1-carbonyl)isoindolin-2-yl)pyrimidin-4-yl)amino)isoquinolin-1(2H)-one]",> 10000,129
"CN(CC(F)(F)F)C(=O)N1Cc2ccc(-c3ncc(F)c(Nc4ccc5c(c4)CCNC5=O)n3)cc2C1 [C78, 5-(5-fluoro-4-((1-oxo-1,2,3,4-tetrahydro-isoquinolin-6-yl)amino)pyrimidin-2-yl)-N-methyl-N-(2,2,2-trifluoro-ethyl) isoindoline-2-carboxylate]",> 10000,40
"O=C(CCC(F)(F)F)N1Cc2ccc(-c3ncc(F)c(Nc4ccc5c(=O)[nH]ccc5c4)n3)cc2C1 [C63, 6-((5-fluoro-2-(2-(4,4,4-trifluoro-butanoyl)isoindolin-5-yl)pyrimidin-4-yl)amino) isoquinolin-1(2H)-one]",> 10000,24
"O=C1NCCc2cc(Nc3nc(-c4ccc5c(c4)CN(C(=O)OC4CC(F)(F)C4)C5)ncc3F)ccc21 [C14, 3,3-difluoro-cyclobutyl 5-(5-fluoro-4-((1-oxo-1,2,3,4-tetrahydro-isoquinolin-6-yl)amino)pyrimidin-2-yl) isoindoline-2-carboxylate]",> 10000,28
"O=C1NCc2cc(Nc3nc(-c4ccc5c(c4)CN(C(=O)C4CC(F)(F)C4)C5)ncc3F)ccc21 [C3, 5-((2-(2-(3,3-difluoroo-cyclobutane-1-carbonyl)isoindolin-5-yl)-5-fluoro-pyrimidin-4-yl)amino) isoindolin-1-one]",> 10000,287
"O=C1NCCc2cc(Nc3nc(-c4cc5c(s4)CCN(C(=O)CCC(F)(F)F)C5)ncc3F)ccc21 [C69, 6-((5-fluoro-2-(5-(4,4,4-trifluorobutanoyl)-4,5,6,7-tetrahydrothieno[3,2-c]pyridin-2-yl)pyrimidin-4-yl)amino)-3,4-dihydroisoquinolin-1(2H)-one]",> 10000,45
"O=C1NCCc2cc(Nc3nc(-c4ccc5c(c4)CN(C(=O)N4CC(F)(F)C4)C5)ncc3F)ccc21 [C81, 6-((2-(2-(3,3-difluoro-azetidine-1-carbonyl)isoindolin-5-yl)-5-fluoro-pyrimidin-4-yl)amino)-3,4-dihydro-isoquinolin-1(2H)-one]",> 10000,129
CC(CC(=O)N1Cc2ccc(-c3nc(Nc4ccc5c(=O)[nH]ccc5c4)c4ccccc4n3)cc2C1)C(F)(F)F (centres unmarked) [C50],> 10000,280
"O=C(OC1CC(F)(F)C1)N1CCc2sc(-c3ncc(F)c(Nc4ccc5c(=O)[nH]ccc5c4)n3)cc2C1 [C27, 3,3-difluorocyclobutyl 2-(5-fluoro-4-((1-oxo-1,2-dihydroisoquinolin-6-yl)amino)pyrimidin-2-yl)-6,7-dihydrothieno[3,2-c]pyridine-5(4H)-carboxylate]",> 10000,8
"CC(CC(=O)N1Cc2ccc(-c3ncc(F)c(Nc4ccc5c(c4)CCNC5=O)n3)cc2C1)C(F)(F)F (centres unmarked) [C67, 6-((5-fluoro-2-(2-(4,4,4-trifluoro-3-methyl-butanoyl)isoindolin-5-yl)pyrimidin-4-yl)amino)-3,4-dihydro-isoquinolin-1(2H)-one]",> 10000,101
"O=C(N1CCc2cc(-c3nccc(Nc4ccc5c(=O)[nH]ccc5c4)n3)ccc2C1)N1CC(F)(F)C1 [C44, 6-((2-(2-(3. 3-difluoro-azetidine-1-carbonyl)-1,2,3,4-tetrahydro-isoquinolin-6-yl)pyrimidin-4-yl)amino) isoquinolin-1(2H)-one]",> 10000,57
O=C(N1Cc2ccc(-c3ncc(F)c(Nc4ccc5c(=O)[nH]ccc5c4)n3)cc2C1)C(F)(F)F [C62],> 10000,139
"CC(OC(=O)N1CCc2sc(-c3nccc(Nc4ccc5c(c4)CCNC5=O)n3)cc2C1)C(F)(F)F (centres unmarked) [C59, 1,1,1-trifluoropropan-2-yl 2-(4-((1-oxo-1,2,3,4-tetrahydroisoquinolin-6-yl)amino)pyrimidin-2-yl)-6,7-dihydrothieno[3,2-c]pyridine-5(4H)-carboxylate]",> 10000,33
"O=C(OC1CC(F)(F)C1)N1CCc2cc(-c3ncc(F)c(Nc4ccc5c(=O)[nH]ccc5c4)n3)ccc2C1 [C23, 3,3-difluoro-cyclobutyl 6-(5-fluoro-4-((1-oxo-1,2-dihydro-isoquinolin-6-yl)amino)pyrimidin-2-yl)-3,4-dihydro-isoquinolin-2(1H)-carboxylate]",> 10000,173
"CC(C)(C)CC(=O)N1CCc2sc(-c3ncc(F)c(Nc4ccc5c(c4)CCNC5=O)n3)cc2C1 [C53, 6-((2-(5-(3,3-dimethylbutanoyl)-4,5,6,7-tetrahydrothieno [3,2-c]pyridin-2-yl)-5-fluoropyrimidin-4-yl)amino)-3,4-dihydroisoquinolin-1(2H)-one]",> 10000,135
"O=C(C1CC(F)(F)C1)N1Cc2ccc(-c3nccc(Nc4ccc5c(=O)[nH]ccc5c4)n3)cc2C1 [C54, 6-((2-(2-(3,3-difluoroocyclobutane-1-carbonyl)isoindolin-5-yl)pyrimidin-4-yl)amino)isoquinolin-1(2H)-one]",> 10000,17
"O=C(C1CC(F)(F)C1)N1Cc2ccc(-c3ncc(F)c(Nc4ccc5c(=O)[nH]cc(Cl)c5c4)n3)cc2C1 [C5, 4-chloro-6-((2-(2-(3,3-difluoroo-cyclobutane-1-carbonyl)isoindolin-5-yl)-5-fluoro-pyrimidin-4-yl)amino) isoquinolin-1(2H)-one]",> 10000,13
"CC(OC(=O)N1CCc2cc(-c3ncc(F)c(Nc4ccc5c(=O)[nH]ccc5c4)n3)ccc2C1)C(F)(F)F (centres unmarked) [C39, 1,1,1-trifluoro-propan-2-yl 6-(5-fluoro-4-((1-oxo-1,2-dihydro-isoquinolin-6-yl)amino)pyrimidin-2-yl)-3,4-dihydro-isoquinolin-2(1H)-carboxylate]",> 10000,102
"CC(CC(=O)N1CCc2cc(-c3ncc(F)c(Nc4ccc5c(c4)CCNC5=O)n3)ccc21)C(F)(F)F (centres unmarked) [C74, 6-((5-fluoro-2-(1-(4,4,4-trifluoro-3-methyl-butanoyl)indolin-5-yl)pyrimidin-4-yl)amino)-3,4-dihydro-isoquinolin-1(2H)-one]",> 10000,54
"CC(OC(=O)N1CCc2sc(-c3ncc(F)c(Nc4ccc5c(=O)[nH]ncc5c4)n3)cc2C1)C(F)(F)F (centres unmarked) [C60, 1,1,1-trifluoropropan-2-yl 2-(5-fluoro-4-((1-oxo-1,2-dihydrophthalazin-6-yl)amino)pyrimidin-2-yl)-6,7-dihydrothieno[3,2-c]pyridine-5(4H)-carboxylate]",> 10000,13
"C[C@@H](OC(=O)N1CCc2sc(-c3ncc(F)c(Nc4ccc5c(c4)CCNC5=O)n3)cc2C1)C(F)(F)F [C65, (R)-1,1,1-trifluoropropan-2-yl 2-(5-fluoro-4-((1-oxo-1,2,3,4-tetrahydroisoquinolin-6-yl)amino)pyrimidin-2-yl)-6,7-dihydrothieno[3,2-c]pyridine-5(4H)-carboxylate]",> 10000,80
"CC(C)(C)CC(=O)N1CCc2sc(-c3nccc(Nc4ccc5c(=O)[nH]ccc5c4)n3)cc2C1 [C57, 6-((2-(5-(3,3-dimethylbutanoyl)-4,5,6,7-tetrahydrothieno[3,2-c]pyridin-2-yl)pyrimidin-4-yl)amino)isoquinolin-1(2H)-one]",> 10000,16
